According to the supplement of paper PMC13380429:

Columns and labels:
Details in all cases: 72 h
HepG2 [1] = experiment: relative viability EC50 (midpoint between 100% and the lowest measured viability); higher = less toxic
Calu-3 [2] = experiment: as above
U2OS [3] = experiment: as above
Caco-2 [4] = experiment: as above
Vero E6 [5] = experiment: as above
HepG2 [6] = experiment: drug sensitivity score (DSS) for viability; higher = more toxic; extreme values may be limits of the assay
Calu-3 [7] = experiment: as above
U2OS [8] = experiment: as above
Caco-2 [9] = experiment: as above
Vero E6 [10] = experiment: as above
HepG2 [11] = experiment: cell viability relative to DMSO; higher = less toxic
Calu-3 [12] = experiment: as above
U2OS [13] = experiment: as above
Caco-2 [14] = experiment: as above
Vero E6 [15] = experiment: as above

SMILES: N#Cc1ccc2[nH]c(O)c(-c3ccc(CN4CCOCC4)cn3)c2c1 [AZD1080]
- relative viability EC50 (HepG2 [1]): > 10 µM
- relative viability EC50 (Calu-3 [2]): > 10 µM
- relative viability EC50 (U2OS [3]): > 10 µM
- relative viability EC50 (Caco-2 [4]): > 10 µM
- relative viability EC50 (Vero E6 [5]): > 10 µM
- drug sensitivity score (HepG2 [6]): 0.2
- drug sensitivity score (Calu-3 [7]): 0
- drug sensitivity score (U2OS [8]): 0
- drug sensitivity score (Caco-2 [9]): 0.1
- drug sensitivity score (Vero E6 [10]): 0.2
- cell viability (HepG2 [11]; 1 nM): 107%
- cell viability (HepG2 [11]; 10 nM): 99.3%
- cell viability (HepG2 [11]; 100 nM): 102%
- cell viability (HepG2 [11]; 1000 nM): 112%
- cell viability (HepG2 [11]; 10000 nM): 82.7%
- cell viability (Calu-3 [12]; 1 nM): 105%
- cell viability (Calu-3 [12]; 10 nM): 107%
- cell viability (Calu-3 [12]; 100 nM): 100%
- cell viability (Calu-3 [12]; 1000 nM): 112%
- cell viability (Calu-3 [12]; 10000 nM): 91.2%
- cell viability (U2OS [13]; 1 nM): 95.3%
- cell viability (U2OS [13]; 10 nM): 105%
- cell viability (U2OS [13]; 100 nM): 95.8%
- cell viability (U2OS [13]; 1000 nM): 105%
- cell viability (U2OS [13]; 10000 nM): 99.5%
- cell viability (Caco-2 [14]; 1 nM): 96.3%
- cell viability (Caco-2 [14]; 10 nM): 100%
- cell viability (Caco-2 [14]; 100 nM): 106%
- cell viability (Caco-2 [14]; 1000 nM): 113%
- cell viability (Caco-2 [14]; 10000 nM): 84.6%
- cell viability (Vero E6 [15]; 1 nM): 99.1%
- cell viability (Vero E6 [15]; 10 nM): 97.6%
- cell viability (Vero E6 [15]; 100 nM): 98.2%
- cell viability (Vero E6 [15]; 1000 nM): 108%
- cell viability (Vero E6 [15]; 10000 nM): 82%

SMILES: Cc1cc(SCc2sc(-c3ccc(C(F)(F)F)c(F)c3)nc2C)ccc1OCC(=O)O [GW-0742]
- relative viability EC50 (HepG2 [1]): > 10 µM
- relative viability EC50 (Calu-3 [2]): > 10 µM
- relative viability EC50 (U2OS [3]): > 10 µM
- relative viability EC50 (Caco-2 [4]): > 10 µM
- relative viability EC50 (Vero E6 [5]): > 10 µM
- drug sensitivity score (HepG2 [6]): 0
- drug sensitivity score (Calu-3 [7]): 0
- drug sensitivity score (U2OS [8]): 0
- drug sensitivity score (Caco-2 [9]): 0
- drug sensitivity score (Vero E6 [10]): 0
- cell viability (HepG2 [11]; 1 nM): 102%
- cell viability (HepG2 [11]; 10 nM): 74.6%
- cell viability (HepG2 [11]; 100 nM): 94%
- cell viability (HepG2 [11]; 1000 nM): 90.1%
- cell viability (HepG2 [11]; 10000 nM): 99.9%
- cell viability (Calu-3 [12]; 1 nM): 95.1%
- cell viability (Calu-3 [12]; 10 nM): 94.8%
- cell viability (Calu-3 [12]; 100 nM): 92.5%
- cell viability (Calu-3 [12]; 1000 nM): 90.5%
- cell viability (Calu-3 [12]; 10000 nM): 98.3%
- cell viability (U2OS [13]; 1 nM): 102%
- cell viability (U2OS [13]; 10 nM): 103%
- cell viability (U2OS [13]; 100 nM): 97.9%
- cell viability (U2OS [13]; 1000 nM): 104%
- cell viability (U2OS [13]; 10000 nM): 99.7%
- cell viability (Caco-2 [14]; 1 nM): 99.9%
- cell viability (Caco-2 [14]; 10 nM): 101%
- cell viability (Caco-2 [14]; 100 nM): 89.1%
- cell viability (Caco-2 [14]; 1000 nM): 106%
- cell viability (Caco-2 [14]; 10000 nM): 87.2%
- cell viability (Vero E6 [15]; 1 nM): 96.3%
- cell viability (Vero E6 [15]; 10 nM): 101%
- cell viability (Vero E6 [15]; 100 nM): 96.7%
- cell viability (Vero E6 [15]; 1000 nM): 98.3%
- cell viability (Vero E6 [15]; 10000 nM): 99%

SMILES: CCN(c1nc(N)c(C(=O)NC(=N)N)nc1Cl)C(C)C [EIPA]
- relative viability EC50 (HepG2 [1]): > 10 µM
- relative viability EC50 (Calu-3 [2]): > 10 µM
- relative viability EC50 (U2OS [3]): > 10 µM
- relative viability EC50 (Caco-2 [4]): > 10 µM
- relative viability EC50 (Vero E6 [5]): > 10 µM
- drug sensitivity score (HepG2 [6]): 1.2
- drug sensitivity score (Calu-3 [7]): 0.2
- drug sensitivity score (U2OS [8]): 0
- drug sensitivity score (Caco-2 [9]): 0
- drug sensitivity score (Vero E6 [10]): 0
- cell viability (HepG2 [11]; 1 nM): 100%
- cell viability (HepG2 [11]; 10 nM): 97.4%
- cell viability (HepG2 [11]; 100 nM): 101%
- cell viability (HepG2 [11]; 1000 nM): 85.6%
- cell viability (HepG2 [11]; 10000 nM): 86.5%
- cell viability (Calu-3 [12]; 1 nM): 92.4%
- cell viability (Calu-3 [12]; 10 nM): 104%
- cell viability (Calu-3 [12]; 100 nM): 91.9%
- cell viability (Calu-3 [12]; 1000 nM): 102%
- cell viability (Calu-3 [12]; 10000 nM): 84.9%
- cell viability (U2OS [13]; 1 nM): 99.7%
- cell viability (U2OS [13]; 10 nM): 100%
- cell viability (U2OS [13]; 100 nM): 99.8%
- cell viability (U2OS [13]; 1000 nM): 102%
- cell viability (U2OS [13]; 10000 nM): 93.8%
- cell viability (Caco-2 [14]; 1 nM): 90.8%
- cell viability (Caco-2 [14]; 10 nM): 104%
- cell viability (Caco-2 [14]; 100 nM): 101%
- cell viability (Caco-2 [14]; 1000 nM): 100%
- cell viability (Caco-2 [14]; 10000 nM): 105%
- cell viability (Vero E6 [15]; 1 nM): 103%
- cell viability (Vero E6 [15]; 10 nM): 94.2%
- cell viability (Vero E6 [15]; 100 nM): 96.2%
- cell viability (Vero E6 [15]; 1000 nM): 94.2%
- cell viability (Vero E6 [15]; 10000 nM): 104%

SMILES: Cc1noc(NS(=O)(=O)c2ccc(N)cc2)c1C [sulfafurazole]
- relative viability EC50 (HepG2 [1]): > 10 µM
- relative viability EC50 (Calu-3 [2]): > 10 µM
- relative viability EC50 (U2OS [3]): > 10 µM
- relative viability EC50 (Caco-2 [4]): > 10 µM
- relative viability EC50 (Vero E6 [5]): > 10 µM
- drug sensitivity score (HepG2 [6]): 0
- drug sensitivity score (Calu-3 [7]): 0
- drug sensitivity score (U2OS [8]): 0
- drug sensitivity score (Caco-2 [9]): 0
- drug sensitivity score (Vero E6 [10]): 0
- cell viability (HepG2 [11]; 1 nM): 93%
- cell viability (HepG2 [11]; 10 nM): 94.3%
- cell viability (HepG2 [11]; 100 nM): 90.6%
- cell viability (HepG2 [11]; 1000 nM): 102%
- cell viability (HepG2 [11]; 10000 nM): 100%
- cell viability (Calu-3 [12]; 1 nM): 96.2%
- cell viability (Calu-3 [12]; 10 nM): 92.7%
- cell viability (Calu-3 [12]; 100 nM): 105%
- cell viability (Calu-3 [12]; 1000 nM): 107%
- cell viability (Calu-3 [12]; 10000 nM): 98.1%
- cell viability (U2OS [13]; 1 nM): 100%
- cell viability (U2OS [13]; 10 nM): 96.5%
- cell viability (U2OS [13]; 100 nM): 99.5%
- cell viability (U2OS [13]; 1000 nM): 96%
- cell viability (U2OS [13]; 10000 nM): 101%
- cell viability (Caco-2 [14]; 1 nM): 95.7%
- cell viability (Caco-2 [14]; 10 nM): 94.2%
- cell viability (Caco-2 [14]; 100 nM): 96.6%
- cell viability (Caco-2 [14]; 1000 nM): 94%
- cell viability (Caco-2 [14]; 10000 nM): 103%
- cell viability (Vero E6 [15]; 1 nM): 101%
- cell viability (Vero E6 [15]; 10 nM): 96.6%
- cell viability (Vero E6 [15]; 100 nM): 98.6%
- cell viability (Vero E6 [15]; 1000 nM): 99.2%
- cell viability (Vero E6 [15]; 10000 nM): 98.7%
